pKd: −log10 of the molar value.
Target: T1, DCAF1 WD40 domain (residues 1077-1390) (Homo sapiens, UniProt Q9Y4B6)
T1 construct: DCAF1 WD40 domain (residues 1077-1390)
Assay: DCAF1 binding assay by SPR (Biacore 8K+), DCAF1-3 KD
Details: 25 °C, read-out: DCAF1-3 SPR (KD)

T1 sequence (Q9Y4B6 1077-1390): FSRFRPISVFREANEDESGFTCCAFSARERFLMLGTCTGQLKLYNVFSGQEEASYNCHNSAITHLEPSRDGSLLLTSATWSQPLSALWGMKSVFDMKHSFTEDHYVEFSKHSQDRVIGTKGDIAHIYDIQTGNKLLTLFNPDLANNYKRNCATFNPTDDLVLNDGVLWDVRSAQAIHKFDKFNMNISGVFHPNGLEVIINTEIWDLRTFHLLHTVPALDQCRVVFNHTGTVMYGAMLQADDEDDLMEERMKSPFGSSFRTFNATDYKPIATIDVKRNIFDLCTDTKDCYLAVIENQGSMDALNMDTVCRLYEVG

| pKd | Structure (SMILES) |
| --- | --- |
| 4.00 to 5.00 | COCCN1CCN(c2ccnc(NC3CCCN(c4cccc(F)c4)C3)n2)CC1 (centres unmarked) [I-28] |
| < 3.70 | Fc1cccc(N2CCC[C@@H](N(c3ccncc3)c3cc(N4CCOCC4)ccn3)C2)c1 [I-307] |
| 4.00 to 5.00 | COC(=O)Cc1ccnc(N2CCC[C@@H](Nc3cc(N4CCOCC4)ccn3)C2)c1 [I-429] |
| 4.00 to 5.00 | NC(=O)C[C@H](NC(=O)c1c[nH]nc1-c1cccc2nc[nH]c12)c1cccc(Cl)c1 [I-355] |
| < 3.70 | CN1CCN(c2cc(N[C@@H]3CCCN(c4cccc(F)c4)C3)ncn2)CC1 [I-374] |
| 4.00 to 5.00 | OC1(C2CCCCC2)CCC[C@@H](Nc2cc(N3CCCCC3)ccn2)C1 (some centres unmarked) [I-804] |
| > 5.00 | Cc1cc(F)c(-c2[nH]ncc2C(=O)N[C@@H](CC(N)=O)c2cccc(Cl)c2)c(F)c1 [I-549] |
| 4.00 to 5.00 | NC(=O)C[C@H](NC(=O)c1cn[nH]c1-c1cccnc1)c1cccc(Cl)c1 [I-127] |
| 4.00 to 5.00 | Cc1c(F)ccc(F)c1-c1[nH]ncc1C(=O)N[C@H](c1cccc(Cl)c1)C1CCCS1(=O)=O (some centres unmarked) [I-999] |
| < 3.70 | C=CC(=O)N1CCC(c2n[nH]cc2C(=O)N[C@@H](CC(N)=O)c2cccc(Cl)c2)C1 (some centres unmarked) [I-453] |
| 4.00 to 5.00 | CCOC(=O)Cc1ccncc1N1CCC[C@@H](Nc2cc(N3CCOCC3)ccn2)C1 [I-766] |
| < 3.70 | C=CC(=O)NCc1n[nH]cc1C(=O)N[C@@H](CC(N)=O)c1cccc(Cl)c1 [I-467] |
| < 3.70 | Fc1cccc(N2CCC[C@@H](Nc3ccnc(N4CCOCC4)c3)C2)c1 [I-18] |
| < 3.70 | C[C@H](CC(N)=O)NC(=O)c1cn[nH]c1-c1ccccc1F [I-132] |
| < 3.70 | FC[C@@]1(Nc2cc(N3CCOCC3)ccn2)CCCN(c2cccc(F)c2)C1 [I-277] |
| > 5.00 | NC(=O)C[C@H](NC(=O)c1c[nH]c(C(N)=O)c1-c1ccccc1F)c1cccc(Cl)c1 [I-599] |
| > 5.00 | NC(=O)C[C@H](NC(=O)c1c[nH]c(C(=O)c2ccccc2)c1-c1ccccc1F)c1cccc(Cl)c1 [I-603] |
| > 5.00 | Cc1c(F)ccc(F)c1-c1c(C(=O)N[C@@H](CC(=O)N2CCNCC2)c2cccc(Cl)c2)c[nH]c1C(=O)c1ccccc1 [I-851] |
| > 5.00 | Cc1cc(CCCOCCOCCOCCOCCOCCNC(=O)C[C@@H]2N=C(c3ccc(Cl)cc3)c3c(sc(C)c3C)-n3c(C)nnc32)cc(F)c1-c1c(C(=O)N[C@@H](CC(N)=O)c2cccc(Cl)c2)c[nH]c1C#N [I-1051] |
| 4.00 to 5.00 | Oc1ccc2nc(N3CCC[C@@H](Nc4cc(N5CCOCC5)ccn4)C3)ccc2c1 [I-780] |
| < 3.70 | O=C1[C@H](Nc2cc(N3CCOCC3)ccn2)CCCN1c1cccc(F)c1 [I-281] |
| 4.00 to 5.00 | NCCCc1cccc(N2CCC[C@@H](Nc3cc(N4CCOCC4)ccn3)C2)c1 [I-867] |
| 3.70 to 4.00 | Fc1cccc(N2C3CC[C@H]2CC[C@H]3Nc2nccc(N3CCOCC3)n2)c1 (stereo in doubt) [I-60] |
| < 3.70 | Fc1cccc(N2CCC[C@@H](n3cnc4c(N5CCOCC5)ncnc43)C2)c1 [I-51] |
| > 5.00 | Cc1sc2c(c1C)C(c1ccc(Cl)cc1)=N[C@@H](CC(=O)NCCOCCOCCOCCOCC(=O)c1[nH]cc(C(=O)N[C@@H](CC(N)=O)c3cccc(Cl)c3)c1-c1ccccc1F)c1nnc(C)n1-2 [I-896] |
| < 3.70 | c1ccc(COc2cccc(N3CCC[C@@H](Nc4cc(N5CCOCC5)ccn4)C3)c2)cc1 [I-690] |
| 4.00 to 5.00 | O=C(O)C1C(Nc2cc(N3CCOCC3)ccn2)CCCN1c1cccc(F)c1 (centres unmarked) [I-628] |

| pKd | Structure (SMILES) |
| --- | --- |
| 4.00 to 5.00 | NC(=O)C[C@@H](NC(=O)c1cn[nH]c1-c1ncccc1F)c1cccc(Cl)c1 [I-529] |
| > 5.00 | Cc1c(F)ccc(F)c1-c1c(C(=O)N[C@@H](CC(N)=O)c2cccc(Cl)c2)c[nH]c1/C(=N/OC(C)C)c1ccccc1 [I-759] |
| > 5.00 | COc1cccc(C(=O)c2[nH]cc(C(=O)N[C@@H](CC(N)=O)c3cccc(Cl)c3)c2-c2c(F)ccc(F)c2C)c1 [I-795] |
| < 3.70 | c1cc(N2CCOCC2)cc(NC2CCCN(c3cnn[nH]3)C2)n1 (centres unmarked) [I-486] |
| > 5.00 | Cc1sc2c(c1C)C(c1ccc(Cl)cc1)=N[C@@H](CC(=O)NCCOCCOCCOCCOCCC1CCN(c3ccnc(N4CC[C@@H]5[C@H]4CCCN5c4cccc(F)c4)c3)CC1)c1nnc(C)n1-2 [I-890] |
| < 3.70 | C[C@H]1CC[C@@H](Nc2cc(N3CCOCC3)ncn2)CN1c1cccc(F)c1 [I-234] |
| 4.00 to 5.00 | NC(=O)C[C@H](NC(=O)c1cc[nH]c1-c1ccccc1F)c1cccc(Cl)c1 [I-89] |
| 4.00 to 5.00 | NC[C@@H]1CC[C@H](Nc2cc(N3CCCCC3)ccn2)CN1c1cccc(F)c1 [I-1022] |
| < 3.70 | Fc1cccc(NC2CCCN(c3cc(N4CCOCC4)ncn3)C2)c1 (centres unmarked) [I-179] |
| 3.70 to 4.00 | c1cc2c(N3CCC[C@@H](Nc4cc(N5CCOCC5)ccn4)C3)nccc2cn1 [I-66] |
| < 3.70 | CCCN1CCN(c2cc(N[C@@H]3CCCN(c4cccc(F)c4)C3)ncn2)CC1 [I-376] |
| < 3.70 | NC(=O)c1cccc(N2CCC[C@@H](Nc3cc(N4CCOCC4)ccn3)C2)c1 [I-775] |
| < 3.70 | Fc1cccc(N2CCC[C@@H](Nc3cc(N4CCOCC4)ncc3C(F)(F)F)C2)c1 [I-405] |
| 4.00 to 5.00 | O[C@@H]1C[C@@H](Nc2cc(N3CCOCC3)ccn2)CN(c2cccc(F)c2)C1 [I-274] |
| > 5.00 | COCCC(=O)c1c(-c2c(F)ccc(F)c2C)c(C(=O)N[C@@H](CC(N)=O)c2cccc(Cl)c2)cn1C [I-973] |
| < 3.70 | N[C@@H](c1cncc(N2CCC[C@@H](Nc3cc(N4CCOCC4)ccn3)C2)c1)C1CC1 [I-485] |
| > 5.00 | Cc1c(F)ccc(F)c1-c1[nH]ncc1C(=O)N[C@@H](c1cccc(Cl)c1)[C@H]1CCCS1(=O)=O [I-1000] |
| 4.00 to 5.00 | C[C@@H]1CCCN(c2ccnc(N[C@@H]3CCCN(c4cccc(F)c4)C3)c2)C1 [I-552] |
| > 5.00 | Cc1c(F)ccc(F)c1-c1c(C(=O)N[C@@H](CC(N)=O)c2cccc(Cl)c2)csc1C#N [I-972] |
| 4.00 to 5.00 | Fc1cccc(N2CCC[C@@H](Nc3cc(N4CC5(CCC5)C4)ccn3)C2)c1 [I-577] |
| > 5.00 | Cc1cccc(F)c1-c1c(C(=O)N[C@@H](CC(N)=O)c2cccc(Cl)c2)c[nH]c1C(=O)c1cccc(N2CCCCC2)c1 [I-700] |
| 4.00 to 5.00 | NC(=O)[C@H]1CC[C@@H](Nc2cc(N3CCCCC3)ccn2)CN1c1cccc(F)c1 [I-1025] |
| < 3.70 | C[S@@+]([O-])c1ccc(N2CCC[C@@H](Nc3cc(N4CCOCC4)ccn3)C2)cc1 [I-864] |
| > 5.00 | Cc1ccc(-c2[nH]ncc2C(=O)N[C@@H](CC(N)=O)c2cccc(Cl)c2)c(F)c1 [I-506] |
| < 3.70 | Cc1sc2c(c1C)C(c1ccc(Cl)cc1)=N[C@@H](CC(=O)NCCOCCOCCOCCOCCOCCOCCn1cc(C(=O)N[C@@H](CC(N)=O)c3cccc(Cl)c3)c(-c3ccccc3F)n1)c1nnc(C)n1-2 [I-889] |
| 4.00 to 5.00 | C=CC(=O)NCCOCC1CCN(c2ccnc(N[C@@H]3CCCN(c4cccc(F)c4)C3)c2)CC1 [I-803] |
| 4.00 to 5.00 | Fc1cccc(N2CCC[C@@H](Nc3cc(N4Cc5ccccc5C4)ccn3)C2)c1 [I-554] |

| pKd | Structure (SMILES) |
| --- | --- |
| < 3.70 | c1cc(N2CCC[C@@H](Nc3cc(N4CCOCC4)ncn3)C2)ccn1 [I-6] |
| < 3.70 | c1ccc(-n2cnc3cc(N4CCC[C@@H](Nc5cc(N6CCOCC6)ccn5)C4)ccc32)cc1 [I-688] |
| < 3.70 | CS(=O)(=O)Cc1ccc(F)c(-c2[nH]ncc2C(=O)N[C@H](CC(N)=O)c2cccc(Cl)c2)c1 [I-532] |
| > 5.00 | Cc1c(F)ccc(F)c1-c1c(C(=O)N[C@@H](CC(N)=O)c2cccc(Cl)c2)c[nH]c1C(=O)c1ccccc1 [I-653] |
| < 3.70 | NC(=O)C[C@H](NC(=O)c1c[nH]nc1-c1ccc2[nH]cnc2c1)c1cccc(Cl)c1 [I-240] |
| < 3.70 | CN(c1nccc(N2CCOCC2)n1)[C@@H]1CCCN(c2cccc(F)c2)C1 [I-39] |
| > 5.00 | Cc1sc2c(c1C)C(c1ccc(Cl)cc1)=N[C@@H](CC(=O)NCCOCCOCCOCCOCCOCCOCC(=O)c1[nH]cc(C(=O)N[C@@H](CC(N)=O)c3cccc(Cl)c3)c1-c1ccccc1F)c1nnc(C)n1-2 [I-898] |
| > 5.00 | Cc1cc(Cl)cc([C@@H](CC(N)=O)NC(=O)c2cn[nH]c2-c2c(C)cccc2F)c1 [I-738] |
| < 3.70 | COCCN1CCN(c2cc(N[C@@H]3CCCN(c4cccc(F)c4)C3)ncn2)CC1 [I-378] |
| < 3.70 | NC(=O)C[C@H](NC(=O)c1c[nH]nc1-c1cccc2ccnn12)c1cccc(Cl)c1 [I-236] |
| < 3.70 | Fc1cccc(N2CCCC(C3(c4cc(N5CCOCC5)ccn4)CC3)C2)c1 (centres unmarked) [I-259] |
| > 5.00 | C=CC(=O)NC1CCC2(CC1)CCN(c1ccnc(N[C@@H]3CCCN(c4cccc(F)c4)C3)c1)CC2 [I-657] |
| < 3.70 | NC(=O)C[C@@]1(NC(=O)c2c[nH]nc2-c2ccccc2F)CCCc2c(Cl)cccc21 [I-155] |
| > 5.00 | NCCCCCCCCCCCC1CCN(c2ccnc(N3CC[C@@H]4[C@H]3CCCN4c3cccc(F)c3)c2)CC1 [I-721] |
| 4.00 to 5.00 | OC[C@H]1CC[C@H](Nc2cc(N3CCCCC3)ccn2)CN1c1cccc(F)c1 [I-994] |
| < 3.70 | O=C1Cc2cnc(N3CCC[C@@H](Nc4cc(N5CCOCC5)ccn4)C3)cc2N1 [I-434] |
| > 5.00 | Cc1c(F)ccc(F)c1-c1c(C(=O)N[C@@H](CC(N)=O)c2cccc(Cl)c2)cn(C)c1C(=O)c1ccc(C#CCOC2CCNCC2)cc1 [I-1003] |
| 3.70 to 4.00 | COCCN(c1nccc(N2CCOCC2)n1)[C@@H]1CCCN(c2cccc(F)c2)C1 [I-40] |
| < 3.70 | c1cc(N2CCC[C@@H](Nc3nccc(N4CCOCC4)n3)C2)c2cnccc2c1 [I-31] |
| 3.70 to 4.00 | OC[C@@H]1CCN(c2cccc(F)c2)C[C@@H]1Nc1cc(N2CCCCC2)ccn1 [I-988] |
| > 5.00 | NC(=O)C[C@H](NC(=O)c1cn[nH]c1-c1ccccc1F)c1ccccc1F [I-602] |
| > 5.00 | O=c1[nH]cc(N2CCOCC2)cc1N[C@@H]1CCCN(c2cccc(F)c2)C1 [I-533] |
| 4.00 to 5.00 | NC(=O)C[C@H](NC(=O)c1n[nH]cc1-c1ccccc1F)c1cccc(Cl)c1 [I-100] |
| > 5.00 | Fc1cccc(N2CCC[C@@H](Nc3cc(N4C5CCCC4CC5)ccn3)C2)c1 [I-617] |
| 4.00 to 5.00 | NC(=O)CC(Cc1ccccc1)NC(=O)c1cn[nH]c1-c1cc(F)ccc1F (centres unmarked) [I-814] |
| > 5.00 | OC1CCCN(c2ccnc(N[C@@H]3CCCN(c4cccc(F)c4)C3)c2)C1 (some centres unmarked) [I-701] |
